# Experimental data from patent US20230331737A1, “MTORC1 MODULATORS AND USES THEREOF” (Aeovian Pharmaceuticals, Inc., priority 2020, published 2023).
# Key:
# mTORC1 = biological target: T1, mTORC1 (Homo sapiens, UniProt P42345+P62942); assay: mTORC1 inhibition in PC-3 cells, AlphaLISA of p70S6K pT389 levels; format: cell-based; details: mTORC1 as measured by inhibition of p70S6K pT389 levels, read-out: mTROC1 IC50
# T1 construct: endogenous in cells; host or cells: PC-3 cells
# Method: mTORC1 inhibition was determined via analysis of phosphorylation levels of Phospho-p70 S6 kinase (p70S6K pT389) and Phospho-S6 Ribosomal Protein (pRPS6 pS240/pS244) with the corresponding AlphaLISA kits (PerkinElmer Alpha SF Ultra™ Multiplex phospho (Thr389)/total p70 S6K Assay Kit (Eu/Tb) and AlphaLISA SF Ultra™ p-Ribosomal Protein S6 (Ser240/244) Assay Kit).
# %−activity=100*((Sample−Low control)/(High control−Low control))
# FKBP12 = FKBP12 (Homo sapiens, UniProt P62942); assay: SPR assay to determine binding affinity to FKBP12 (direct binding); details: immobilized biotinylated avi-FKBP12, single-cycle kinetics
# Sequence of FKBP12 (P62942 whole entry, species assumed): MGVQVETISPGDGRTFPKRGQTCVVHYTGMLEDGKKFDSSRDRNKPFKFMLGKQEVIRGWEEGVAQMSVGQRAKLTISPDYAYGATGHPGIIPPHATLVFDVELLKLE
# Method: SPR Assay to Determine Binding Affinity to FKBP12.
# Biotinylated avi-FKBP12 was immobilized on a streptavidin chip (Cytiva Series S SA) using a Biacore 8K or 8k+ (Cytiva). […] Test compounds described in Table 11 were diluted in DMSO to 100× working concentration. Each test compound was 100-fold diluted in 50 mM HEPES pH 7.5, 150 mM NaCl, 2 mM MgCl2, 1 mM DTT, 0.05% Tween-20 and a serial dilution prepared (9 concentrations, 3-fold dilutions, 0.08-500 nM). […] The compound dilutions were then injected at 100 uL/min for 120 seconds contact time in sequence with increasing concentrations. Dissociation was monitored for 3600 seconds. 50 mM HEPES pH 7.5, 150 mM NaCl, 2 mM MgCl2, 1 mM DTT, 0.05% Tween-20, 1% DMSO was used as running buffer. The single-cycle kinetics data were fit to a 1:1 binding model to measure the association rate ka (1/Ms), the dissociation rate kd (1/s) and the affinity Kd (M).
# [1] = biological target: FKBP12 ternary complex with FRB (Homo sapiens, UniProt P42345+P62942); assay: SPR assay to characterize ternary complex formation with FKBP12 (FRB injected over compound-saturated FKBP12); format: binding; details: FRB dilutions with 100 nM test compound over immobilized FKBP12
# Method: Biotinylated avi-FKBP12 was immobilized on a streptavidin chip (Cytiva Series S SA) using a Biacore 8K or 8k+ (Cytiva). To achieve an immobilization level of 100 RU, 0.3 μg/ml biotinylated avi-FKBP12 were injected for 80 sec at a flow rate of 10 μl/min. Serial dilution of FRB was prepared (12 concentrations, 3-fold dilutions, 0.00011-20 μM) and supplemented with 100 nM of a test compound. A-B-A injection mode was used to ensure saturation immobilized FKBP12 with respective test compound. 100 nM solution of the respective test compound was injected before FRB injection for 120 sec and during dissociation for 420 sec. The FRB dilutions were then injected 120 seconds contact time with increasing concentrations. Rapamycin was used as reference sample. 50 mM HEPES pH 7.5, 150 mM NaCl, 2 mM MgCl2, 1 mM DTT, 0.05% Tween-20, 1% DMSO was used as running buffer at a flow rate of 30 μl/min. The multi-cycle kinetics data were fit to a 1:1 binding model to measure the association rate ka (1/Ms), the dissociation rate kd (1/s) and the affinity Kd (M). In case of fast association and dissociation, steady state affinity analysis following the law of mass action was used to determine the affinity Kd (M).
SMILES,IC50 (mTORC1) [nM],Kd (FKBP12) [nM],Kd [1] [nM]
"COCCO[C@H]1C[C@@H]2CC[C@@H](C)[C@@](O)(O2)C(=O)C(=O)N2CCCCC2C(=O)O[C@H]([C@H](C)C[C@@H]2CC[C@@H](OCCCN3CCN(C)CC3)[C@H](OC)C2)CC(=O)[C@H](C)/C=C(\C)[C@@H](O)[C@@H](OC)C(=O)[C@H](C)C[C@H](C)/C=C/C=C/C=C/1C (relative stereo) [Compound 431, (1R,9S,12S,15R,16E,18R,19R,21R,23S,24E,26E,28E,30S*,32S,35R)-1,18-dihydroxy-19-methoxy-30-(2-methoxyethoxy)-12-[(1R)-2-[(1S,3R,4R)-3-methoxy-4-[3-(4-methylpiperazin-1-yl)propoxy]cyclohexyl]-1-methyl-ethyl]-15,17,21,23,29,35-hexamethyl-11,36-dioxa-4-azatricyclo[30.3.1.0^4,9]hexatriaconta-16,24,26,28-tetraene-2,3,10,14,20-pentone]",< 0.8,0.3 to 1,< 500
"CO[C@@H]1C[C@H](C[C@@H](C)[C@@H]2CC(=O)[C@H](C)/C=C(\C)[C@@H](O)[C@@H](OC)C(=O)[C@H](C)C[C@H](C)/C=C/C=C/C=C(\C)[C@H](OCCCCO)C[C@@H]3CC[C@@H](C)[C@@](O)(O3)C(=O)C(=O)N3CCCC[C@H]3C(=O)O2)CC[C@H]1OCCCN1CCOCC1 [Compound 27, (1R,9S,12S,15R,16E,18R,19R,21R,23S,24E,26E,28E,30R,32S,35R)-1,18-dihydroxy-30-(4-hydroxybutoxy)-19-methoxy-12-[(1R)-2-[(1S,3R,4R)-3-methoxy-4-(3-morpholinopropoxy)cyclohexyl]-1-methyl-ethyl]-15,17,21,23,29,35-hexamethyl-11,36-dioxa-4-azatricyclo[30.3.1.04,9]hexatriaconta-16,24,26,28-tetraene-2,3,10,14,20-pentone]",0.8 to 1.5,< 0.3,500 to 1100
"COCCO[C@@H]1C[C@@H]2CC[C@@H](C)[C@@](O)(O2)C(=O)C(=O)N2CCCC[C@H]2C(=O)O[C@H]([C@H](C)C[C@@H]2CC[C@@H](OCCCO)[C@H](OC)C2)CC(=O)[C@H](C)/C=C(\C)[C@@H](O)[C@@H](OC)C(=O)[C@H](C)C[C@H](C)/C=C/C=C/C=C/1C [Compound 28, (1R,9S,12S,15R,16E,18R,19R,21R,23S,24E,26E,28E,30R,32S,35R)-1,18-dihydroxy-12-[(1R)-2-[(1S,3R,4R)-4-(3-hydroxypropoxy)-3-methoxy-cyclohexyl]-1-methyl-ethyl]-19-methoxy-30-(2-methoxyethoxy)-15,17,21,23,29,35-hexamethyl-11,36-dioxa-4-azatricyclo[30.3.1.04,9]hexatriaconta-16,24,26,28-tetraene-2,3,10,14,20-pentone]",> 1.5,> 1,500 to 1100
"COCCO[C@@H]1C[C@@H]2CC[C@@H](C)[C@@](O)(O2)C(=O)C(=O)N2CCCC[C@H]2C(=O)O[C@H]([C@H](C)C[C@@H]2CC[C@@H](OCCCN3CCN(C)CC3)[C@H](OC)C2)CC(=O)[C@H](C)/C=C(\C)[C@@H](O)[C@@H](OC)C(=O)[C@H](C)C[C@H](C)/C=C/C=C/C=C/1C [Compound 32, (1R,9S,12S,15R,16E,18R,19R,21R,23S,24E,26E,28E,30R,32S,35R)-1,18-dihydroxy-19-methoxy-30-(2-methoxyethoxy)-12-[(1R)-2-[(1S,3R,4R)-3-methoxy-4-[3-(4-methylpiperazin-1-yl)propoxy]cyclohexyl]-1-methyl-ethyl]-15,17,21,23,29,35-hexamethyl-11,36-dioxa-4-azatricyclo[30.3.1.04,9]hexatriaconta-16,24,26,28-tetraene-2,3,10,14,20-pentone]",> 1.5,0.3 to 1,> 1100
"COCCO[C@@H]1C[C@@H]2CC[C@@H](C)[C@@](O)(O2)C(=O)C(=O)N2CCCC[C@H]2C(=O)O[C@H]([C@H](C)C[C@@H]2CC[C@@H](OCCO)[C@H](OC)C2)CC(=O)[C@H](C)/C=C(\C)[C@@H](O)[C@@H](OC)C(=O)[C@H](C)C[C@H](C)/C=C/C=C/C=C/1C [Compound 40, (1R,9S,12S,15R,16E,18R,19R,21R,23S,24E,26E,28E,30R,32S,35R)-1,18-dihydroxy-12-[(1R)-2-[(1S,3R,4R)-4-(2-hydroxyethoxy)-3-methoxy-cyclohexyl]-1-methyl-ethyl]-19-methoxy-30-(2-methoxyethoxy)-15,17,21,23,29,35-hexamethyl-11,36-dioxa-4-azatricyclo[30.3.1.0^4,9]hexatriaconta-16,24,26,28-tetraene-2,3,10,14,20-pentone]",> 1.5,> 1,500 to 1100
"CO[C@@H]1C[C@H](C[C@@H](C)[C@@H]2CC(=O)[C@H](C)/C=C(\C)[C@@H](O)[C@@H](OC)C(=O)[C@H](C)C[C@H](C)/C=C/C=C/C=C(\C)[C@H](OCC3COC3)C[C@@H]3CC[C@@H](C)[C@@](O)(O3)C(=O)C(=O)N3CCCC[C@H]3C(=O)O2)CC[C@H]1OCCO [Compound 75, (1R,9S,12S,15R,16E,18R,19R,21R,23S,24E,26E,28E,30R,32S,35R)-1,18-dihydroxy-12-[(1R)-2-[(1S,3R,4R)-4-(2-hydroxyethoxy)-3-methoxy-cyclohexyl]-1-methyl-ethyl]-19-methoxy-15,17,21,23,29,35-hexamethyl-30-(oxetan-3-ylmethoxy)-11,36-dioxa-4-azatricyclo[30.3.1.04,9]hexatriaconta-16,24,26,28-tetraene-2,3,10,14,20-pentone]",> 1.5,0.3 to 1,> 1100
"CO[C@@H]1C[C@H](C[C@@H](C)[C@@H]2CC(=O)[C@H](C)/C=C(\C)[C@@H](O)[C@@H](OC)C(=O)[C@H](C)C[C@H](C)/C=C/C=C/C=C(\C)[C@@H](OCCO)C[C@@H]3CC[C@@H](C)[C@@](O)(O3)C(=O)C(=O)N3CCCC[C@H]3C(=O)O2)CC[C@H]1OCCCN1CCOC[C@@H]1C [Compound 401, (1R,9S,12S,15R,16E,18R,19R,21R,23S,24E,26E,28E,30S,32S,35R)-1,18-dihydroxy-30-(2-hydroxyethoxy)-19-methoxy-12-[(1R)-2-[(1S,3R,4R)-3-methoxy-4-[3-[(3S)-3-methylmorpholin-4-yl]propoxy]cyclohexyl]-1-methyl-ethyl]-15,17,21,23,29,35-hexamethyl-11,36-dioxa-4-azatricyclo[30.3.1.04,9]hexatriaconta-16,24,26,28-tetraene-2,3,10,14,20-pentone]",–,–,< 500
"CO[C@@H]1C[C@H](C[C@@H](C)[C@@H]2CC(=O)[C@H](C)/C=C(\C)[C@@H](O)[C@@H](OC)C(=O)[C@H](C)C[C@H](C)/C=C/C=C/C=C(\C)[C@@H](OCCO)C[C@@H]3CC[C@@H](C)[C@@](O)(O3)C(=O)C(=O)N3CCCC[C@H]3C(=O)O2)CC[C@H]1OCCCN1CCOC[C@H]1C [Compound 404, (1R,9S,12S,15R,16E,18R,19R,21R,23S,24E,26E,28E,30S,32S,35R)-1,18-dihydroxy-30-(2-hydroxyethoxy)-19-methoxy-12-[(1R)-2-[(1S,3R,4R)-3-methoxy-4-[3-[(3R)-3-methylmorpholin-4-yl]propoxy]cyclohexyl]-1-methyl-ethyl]-15,17,21,23,29,35-hexamethyl-11,36-dioxa-4-azatricyclo[30.3.1.04,9]hexatriaconta-16,24,26,28-tetraene-2,3,10,14,20-pentone]",< 0.8,< 0.3,–
